Data published in US7244595B2, “Method of maintaining or improving a nitrile hydratase activity” (priority 2003, dated 2007).
“And” between values parts separate entries of the source, which are not always exact repeats. Equal values may be shown once.

Columns and labels:
[1] = molecular target: T1, nitrile hydratase (Pseudonocardia thermophila, UniProt Q7SID2+Q7SID3); test: Nitrile hydrating activity (acrylamide formed) of wet microorganism contacted with an oxidizing agent in deoxidized water; format: cell-based, Escherichia coli HB101 (MT-10822 strain); set-up: expressed in transfected cells; host or cells: Escherichia coli HB101 (transformant MT-10822, FERM BP-5785), IPTG-induced
T1 sequence (Q7SID2 whole entry): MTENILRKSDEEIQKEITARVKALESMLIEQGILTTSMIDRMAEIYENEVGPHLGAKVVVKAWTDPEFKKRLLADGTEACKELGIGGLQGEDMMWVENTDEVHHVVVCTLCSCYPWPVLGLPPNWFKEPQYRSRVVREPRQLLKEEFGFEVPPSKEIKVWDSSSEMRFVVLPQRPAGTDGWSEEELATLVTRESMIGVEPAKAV
T1 sequence (Q7SID3 whole entry): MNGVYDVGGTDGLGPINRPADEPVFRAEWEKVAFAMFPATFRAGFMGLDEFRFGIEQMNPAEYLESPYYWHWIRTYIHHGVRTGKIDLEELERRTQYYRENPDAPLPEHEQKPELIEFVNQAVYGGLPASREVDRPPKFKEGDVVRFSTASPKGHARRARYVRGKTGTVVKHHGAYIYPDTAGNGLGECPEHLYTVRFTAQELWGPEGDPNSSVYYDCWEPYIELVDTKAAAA
Method: (§1) In HPLC analysis of a reaction solution in the Examples, ULTRON 80HG (50×8 φmm) was used as an HPLC column, and 10 mM aqueous phosphate solution was used as a developing solution. Acrylamide and acrylonitrile were detected by absorbance at 220 nm to determine their concentrations.
The resulting microorganism, 0.20 g, was suspended in previously deoxidized pure water in a 100 ml sealable glass container previously sufficiently purged with nitrogen, and potassium ferricyanide was added and suspended as an oxidizing agent at a final concentration shown in Table 1 to give 20.00 g suspension. Separately, an oxidizing agent-free microbial suspension was prepared in the same manner. The microbial suspension was kept at 20° C. for 15 minutes under stirring.
(§2) The reaction was terminated by adding 80 g of 10 mM aqueous phosphoric acid, and then the concentration of acrylamide in the reaction solution was determined by HPLC analysis. Subsequently, the concentration of the microbial suspension based on the dry weight of the microorganism was determined, and then the amount of formed acrylamide per unit dry weight of the microorganism was calculated.
The amount of acrylamide formed per unit dry weight of the microorganism was determined in the same manner as in Example 3 except that in place of potassium ferricyanide, ammonium persulfate was added and suspended as an oxidizing agent at a concentration shown in Table 1.
The microbial suspension was kept at 20° C. under stirring. 0 minute, 10 minutes, 2 hours and 24 hours after the stirring was initiated, a small amount of the microbial suspension was collected, and the amount of formed acrylamide per unit dry weight of the microorganism was determined in the same manner as in Example 3.
Separately, a microbial suspension wherein the oxidizing agent was not added and the pH value was not adjusted was also prepared in the same manner. The microbial suspension was kept at 20° C. for 15 minutes under stirring. The amount of formed acrylamide per unit dry weight of the microorganism was determined in the same manner as in Example 3.
Separately, a microbial suspension wherein the oxidizing agent was not added was also prepared in the same manner. The amount of formed acrylamide per unit dry weight of the microorganism was determined in the same manner as in Example 3.

[2] = molecular target: T1, nitrile hydratase
Method: as §1, §2
A wet microorganism was obtained in the same manner as in Example 3. […] The suspension was kept at 10° C. under stirring, while the air (40 N-ml/min.) was passed through the gaseous phase in the flask. 0, 1, 2, 3, 7 and 19 days after storage, a part of the microbial suspension was removed. […] The amount of formed acrylamide in each of the collected microbial suspensions per unit dry weight of the microorganism was determined in the same manner as in Example 3.
A wet microorganism was obtained in the same manner as in Example 3. […] The amount of formed acrylamide in each of the collected microbial suspensions per unit dry weight of the microorganism was determined in the same manner as in Example 3.

[3] = molecular target: T1, nitrile hydratase; remark: listed apart in the source
Method: as §1
MT-10822 strain (FERM BP-5785, see JP-A 11-253168) having a nitrile hydratase gene introduced into Escherichia coli HB101, deposited by Mitsui Chemicals, Inc., was used as the nitrile hydratase-containing cell in this example.
For culture of this microbial strain, 15.0 L medium having the following composition was prepared in a 30 L culture container and sterilized with high-pressure steam at 121° C. for 20 minutes. Ampicillin was added at a final concentration of 50 μg/ml to this medium, and the microbial strain was inoculated via a platinum loop thereto and cultured at 37° C. at 700 rpm for 20 hours. […]
The reaction was terminated by adding 80 g of 10 mM aqueous phosphoric acid, and then the concentration of acrylamide in the reaction solution was determined by HPLC analysis. Subsequently, the concentration of the microbial suspension was determined on the basis of the dry weight of the microorganism, and then the amount of formed acrylamide per unit dry weight of the microorganism was calculated. […]

Row | SMILES | AMOUNT OF […] (RELATIVE VALUE) [1] | nitrile hydrating activity of the nitrile hydratase on contact of the microorganism with the oxidizing agent (in words) [1] | nitrile hydrating activity of the nitrile hydratase on contact with oxygen, depending on the contact time (in words) [2] | amount of formed acrylamide per unit dry weight of the microorganism (0 hour of storage = 1) [3]
1 | N.N.O=S(=O)(O)OOS(=O)(=O)O [AMMONIUM PERSULFATE, ammonium persulfate] | 1.6 relative value | improved |  | 
2 | OO [HYDROGEN PEROXIDE, hydrogen peroxide] | 2.4 relative value | improved |  | 
3 | O=O [oxygen] |  |  | improved depending on the contact time | 1.1 and 1.0
